Test results from patent US20240092773A1, “DIHYDRO-CYCLOPENTA-ISOQUINOLINE SULFONAMIDES DERIVATIVES” (UCB Biopharma SRL, priority 2019, published 2024).

Biological target: IgE-Tb binding to soluble IgE receptor FcεR1α (Y131A mutation) (Homo sapiens, UniProt P01854, N146Q/N252Q)
Assay: In vitro FRET assay: inhibition of binding of IgE-Tb to receptor FcεR1α-Y131A-AF488
Conditions: read-out: FRET IC50 range

Sequence of IgE-Tb binding to soluble IgE receptor FcεR1α (Y131A mutation) (P01854 whole entry N146Q/N252Q, looked up): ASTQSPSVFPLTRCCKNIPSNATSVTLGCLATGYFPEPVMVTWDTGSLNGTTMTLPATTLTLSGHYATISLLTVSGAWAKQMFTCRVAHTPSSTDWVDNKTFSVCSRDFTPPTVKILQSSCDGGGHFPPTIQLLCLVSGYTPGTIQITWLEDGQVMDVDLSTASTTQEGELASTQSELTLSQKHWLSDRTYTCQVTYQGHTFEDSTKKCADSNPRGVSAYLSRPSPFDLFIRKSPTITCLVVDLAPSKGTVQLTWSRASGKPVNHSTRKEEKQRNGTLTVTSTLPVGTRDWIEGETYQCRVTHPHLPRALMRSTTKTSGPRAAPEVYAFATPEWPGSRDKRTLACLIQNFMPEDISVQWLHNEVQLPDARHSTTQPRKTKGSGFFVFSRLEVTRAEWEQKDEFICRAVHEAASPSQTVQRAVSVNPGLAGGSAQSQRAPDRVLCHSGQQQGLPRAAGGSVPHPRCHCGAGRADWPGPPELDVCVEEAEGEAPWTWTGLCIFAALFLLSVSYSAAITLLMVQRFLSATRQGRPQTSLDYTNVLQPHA

Row | Structure (SMILES) | IC50 [nM]
1 | CC(C)(F)CNS(=O)(=O)c1cc2c(c3cnc(C4CC4)cc13)C(Oc1cccnc1)CC2 (stereo not drawn) [Example 93, 3-cyclopropyl-N-(2-fluoro-2-methylpropyl)-9-pyridin-3-yloxy-8,9-dihydro-7H-cyclopenta[h]isoquinoline-5-sulfonamide] | 100 to 2000
2 | CC(C)(F)CNS(=O)(=O)c1cc2c(c3cnc(C4CC4)cc13)CCC2Oc1cccnc1 (stereo not drawn) [Example 94, 3-cyclopropyl-N-(2-fluoro-2-methylpropyl)-7-pyridin-3-yloxy-8,9-dihydro-7H-cyclopenta[h]isoquinoline-5-sulfonamide] | 100 to 2000
3 | CC(C)CNS(=O)(=O)c1cc2c(c3cnc(C4CC4)cc13)CCC2NC(=S)Nc1cccnc1 (stereo not drawn) [Example 95, 1-[3-cyclopropyl-5-(isobutylsulfamoyl)-8,9-dihydro-7H-cyclopenta[h]isoquinolin-7-yl]-3-(3-pyridyl)thiourea] | 10 to 50
